PubChem BioAssay (NCI)
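Grown in 96-well plates, cells were treated for 48 hours with each compound at five concentrations. Insufficient inhibition: endpoint recorded as highest concentration tested. At the GI50, growth is halved. TGI: total growth inhibition.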

Tests used:
Assay in all cases: growth of human tumour cells (NCI), 48 h
SN12C renal = system: SN12C renal
SK-MEL-2 melanoma = system: SK-MEL-2 melanoma
A549 NSCLC = system: A549 NSCLC
BT-549 breast = system: BT-549 breast
T-47D breast = system: T-47D breast
IGROV1 ovarian = system: IGROV1 ovarian
MALME-3M melanoma = system: MALME-3M melanoma
OVCAR-5 ovarian = system: OVCAR-5 ovarian
NCI-H226 lung = system: NCI-H226 lung
HS 578T breast = system: HS 578T breast

Row | Compound | GI50 (SN12C renal) [µM] | TGI (SN12C renal) [µM] | GI50 (SK-MEL-2 melanoma) [µM] | TGI (SK-MEL-2 melanoma) [µM] | GI50 (A549 NSCLC) [µM] | TGI (A549 NSCLC) [µM] | GI50 (BT-549 breast) [µM] | TGI (BT-549 breast) [µM] | GI50 (T-47D breast) [µM] | TGI (T-47D breast) [µM] | GI50 (IGROV1 ovarian) [µM] | TGI (IGROV1 ovarian) [µM] | GI50 (MALME-3M melanoma) [µM] | TGI (MALME-3M melanoma) [µM] | GI50 (OVCAR-5 ovarian) [µM] | TGI (OVCAR-5 ovarian) [µM] | GI50 (NCI-H226 lung) [µM] | TGI (NCI-H226 lung) [µM] | GI50 (HS 578T breast) [µM] | TGI (HS 578T breast) [µM]
1 | N#CC1=C(N)OC2=C(COc3ccc(F)cc32)C1c1ccc(Cl)cc1 (configuration not stated) | 28.3 | > 100 | 35.1 | > 100 | 93.4 | > 100 | 27.3 | 73.5 | > 100 | > 100 | 70.3 | > 100 | 47.9 | 94.9 | 41.6 | > 100 |  |  |  | 
2 | C=C1C(=O)O[C@@H]2C1C[C@@H](O)/C(C)=C/C/C=C(\C)CCC[C@H](C)[C@H]2OC(C)=O (some centres not stated) | 27.2 | 66.3 | 18.2 | 67.9 | 35.8 | > 100 | 20 | 39.1 | 48.4 | > 100 | 8.84 | 32.7 |  |  | 56.3 | > 100 | 23.2 | 44.3 | 29.1 | 76
3 | O=C(O)c1c2c(c(C(=O)O)c3ccccc13)-c1ccccc1-2 |  | > 100 |  | 97.1 |  | > 100 |  |  |  |  |  |  |  | > 100 |  | > 100 |  | > 100 |  | 
4 | Cc1nc2c(=O)[nH]c(=O)n(C)c2[nH]c1=O |  | > 100 |  | > 100 |  | > 100 |  |  |  |  |  | > 100 |  | > 100 |  | > 100 |  | > 100 |  | 
5 | O=[N+]([O-])c1ccc(Sc2c3ccccc3nc3ccccc23)cc1 |  | > 100 |  | > 100 |  | > 100 |  |  |  |  |  | > 100 |  | > 100 |  | > 100 |  | > 100 |  | 
6 | COC1/C(=C\C(=O)OC(C)(C)C)c2ccccc2N1C(C)=O (configuration not stated) |  | > 100 |  | > 100 |  | > 100 |  |  |  |  |  | > 100 |  |  |  |  |  |  |  | 
7 | CCC1=C[C@@H]2CN(C1)Cc1c([nH]c3ccccc13)[C@@](C(=O)OC)(c1cc3c(cc1OC)N(C=O)[C@H]1[C@@](O)(C(=O)OC)[C@H](OC(C)=O)[C@]4(CC)[C@@H]5C[C@@H]5CN5CC[C@]31[C@@H]54)C2 | 0.0228 | > 6.25 | < 0.000625 | > 6.25 | 0.003 | > 6.25 | 0.00166 | 0.211 | < 0.000625 | > 6.25 | 0.00261 | > 6.25 |  |  | 0.00255 | > 6.25 |  | > 6.25 | 0.00181 | > 6.25
8 | CCOC(=O)CCCn1c(SC)nc2cc(-c3ccco3)[nH]c2c1=O | 81.8 | > 100 | 36.4 | > 100 | > 100 | > 100 |  |  | 39.6 | > 100 | 19.6 | 76.6 | > 100 | > 100 | > 100 | > 100 | > 100 | > 100 | 25.6 | > 100
9 | Nc1ccc(C(=O)c2ccc(N)c(Br)c2)cc1Br | 0.903 | > 100 | 0.435 | 3.99 | 0.494 | 31.3 | 1.84 | 18.8 |  |  | 0.474 | 18.4 |  |  | 0.701 | > 100 | 4.27 | > 61.5 | 0.345 | 
10 | COc1ccc(C(=O)C(c2ccc(OC)cc2)C2(O)C(=O)Nc3c(C)cc(Cl)cc32)cc1 (configuration not stated) |  | > 100 |  | > 100 |  | > 100 |  |  |  |  |  | > 100 |  | > 100 |  | > 100 |  | > 100 |  | 
11 | Cc1cc(O)c(C(=O)CC2(O)C(=O)Nc3c(Cl)cc(Cl)cc32)c(=O)o1 (configuration not stated) |  | > 100 |  | > 100 |  | > 100 |  |  |  |  |  | > 100 |  | > 100 |  | > 100 |  | > 100 |  | 
12 | COC(=O)/C=C(C)/C=C/c1cc(C(C)=O)c(C)o1 |  |  |  | > 100 |  | > 100 |  |  |  |  |  | > 100 |  | > 100 |  | > 100 |  |  |  | 
13 | CC(C)=CC(=O)Oc1ccc([N+](=O)[O-])cc1 |  | > 100 |  | > 100 |  | > 100 |  |  |  |  |  | > 100 |  | > 100 |  | > 100 |  | > 100 |  | 
14 | C[C@@H]1O[C@@H](O[C@@H]2[C@@H](O)[C@H](OCCc3ccc(O)c(O)c3)O[C@H](COC(=O)/C=C/c3ccc(O)c(O)c3)[C@H]2O)[C@H](O)[C@H](O)[C@H]1O | 68.7 | > 100 | > 100 | > 100 | > 100 | > 100 | 12.8 | 30 | > 100 | > 100 | > 100 | > 100 |  |  | > 100 | > 100 | > 100 | > 100 | > 100 | > 100
15 | COc1ccc(/C=C2\CN(C(=O)C(Cl)Cl)C/C(=C\c3ccc(OC)c(OC)c3)C2=O)cc1OC |  |  | 1.85 | > 100 | 1.28 | > 100 | 0.535 | 2.98 | 0.361 | > 100 | 0.321 | 1.75 |  |  |  |  | 0.43 | 1.72 |  | 
16 | CC1(CO)OC1COCc1ccccc1 (configuration not stated) |  | > 100 |  | > 100 |  | > 100 |  |  |  |  |  | > 100 |  | > 100 |  | > 100 |  | > 100 |  | 
17 | CC(=O)NC1=C(Nc2ccc(C)cc2)C(=O)c2ccccc2C1=O |  | 44 |  | 56.7 |  | 29.3 |  |  |  |  |  | 50.8 |  | 22.8 |  | 27.4 |  | 42.5 |  | 
18 | Cn1nc(-c2ccccc2)c(N=[N+]=[N-])cc1=O |  | > 100 |  |  |  | > 100 |  |  |  |  |  | > 100 |  | > 100 |  | > 100 |  | > 100 |  | 
19 | Fc1ccc(Oc2nccc(-c3c(-c4ccc(F)cc4)ncn3C3CCNCC3)n2)cc1 | > 19.6 | > 25 | > 25 | > 25 | > 25 | > 25 | > 25 | > 25 | > 18 | > 25 | 19.2 | > 25 | > 25 | > 25 | > 25 | > 25 |  |  | > 24 | > 25
